Values joined by “and” are separate entries in the source; they are usually repeats but may differ in a detail not shown here. Equal values may be shown once.
Target: T1, MUSK (Homo sapiens, UniProt O15146)
T1 construct: purchased ProQinase; host or cells: Sf9 insect cells or E. coli
T1 sequence (O15146 24-869): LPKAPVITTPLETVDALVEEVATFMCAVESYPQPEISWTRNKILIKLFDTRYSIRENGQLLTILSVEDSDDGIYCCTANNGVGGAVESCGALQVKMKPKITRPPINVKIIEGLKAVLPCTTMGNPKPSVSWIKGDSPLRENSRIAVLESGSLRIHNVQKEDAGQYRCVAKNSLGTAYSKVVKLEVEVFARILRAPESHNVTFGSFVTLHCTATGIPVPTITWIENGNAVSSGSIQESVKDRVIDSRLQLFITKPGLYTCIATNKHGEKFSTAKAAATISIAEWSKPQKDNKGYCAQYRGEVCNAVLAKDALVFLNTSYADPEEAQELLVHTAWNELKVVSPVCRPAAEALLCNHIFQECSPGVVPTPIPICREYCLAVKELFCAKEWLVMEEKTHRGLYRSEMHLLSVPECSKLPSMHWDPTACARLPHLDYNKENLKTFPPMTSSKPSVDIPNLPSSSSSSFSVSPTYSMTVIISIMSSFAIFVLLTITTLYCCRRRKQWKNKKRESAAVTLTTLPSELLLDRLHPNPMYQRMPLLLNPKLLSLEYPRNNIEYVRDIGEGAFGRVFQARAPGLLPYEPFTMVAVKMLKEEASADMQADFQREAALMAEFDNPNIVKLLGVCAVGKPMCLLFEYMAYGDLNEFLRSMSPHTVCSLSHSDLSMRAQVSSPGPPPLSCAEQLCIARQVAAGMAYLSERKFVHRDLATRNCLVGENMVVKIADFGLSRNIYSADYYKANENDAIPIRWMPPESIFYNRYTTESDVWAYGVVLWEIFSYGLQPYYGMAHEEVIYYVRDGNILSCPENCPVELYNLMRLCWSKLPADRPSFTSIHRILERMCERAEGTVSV
Assay: 33PanQinase radiometric kinase assay, MUSK
Assay type: biochemical
Protocol: A radiometric protein kinase assay (33PanQinase Activity Assay) was used for measuring the kinase activity of the 320 protein kinases. All kinase assays were performed in 96-well FlashPlates™ from Perkin Elmer (Boston, Mass., USA) in a 50 μl reaction volume. The reaction cocktail was pipetted in 4 steps in the following order: • 1. 10 μl of non-radioactive ATP solution (in H2O) • 2. 25 μl of assay buffer/[γ-33P]-ATP mixture • 3. 5 μl of test sample in 10% DMSO • 4. 10 μl of enzyme/substrate mixture
All PKC assays (except the PKC-mu and the PKC-nu assay) additionally contained 1 mM CaCl2, 4 mM EDTA, 5 μg/ml phosphatidylserine and 1 μg/ml 1,2-dioleyl-glycerol.
The CAMKID, CAMK2A, CAMK2B, CAMK2D, CAMK4, CAMKK1, CAMKK2, DAPK2, EEF2K, MYLK, MYLK2 and MYLK3 assays additionally contained 1 μg/ml Calmodulin and 0.5 mM CaCl2). The PRKG1 and PRKG2 assays additionally contained 1 μM cGMP. The DNA-PK assay additionally contained 2.5 μg/ml DNA. The protein kinase reaction cocktails were incubated at 30° C. for 60 minutes. The reaction was stopped with 50 μl of 2% (v/v) H3PO4, plates were aspirated and washed two times with 200 μl 0.9% (w/v) NaCl. Incorporation of 33Pi (counting of “cpm”) was determined with a microplate scintillation counter (Microbeta, Wallac). All protein kinase assays were performed with a BeckmanCoulter Biomek 2000/SL robotic system.
All protein kinases provided by ProQinase were expressed in Sf9 insect cells or in E. coli as recombinant GST-fusion proteins or His-tagged proteins, either as full-length or enzymatically active fragments. All kinases were produced from human cDNAs and purified by either GSHaffinity chromatography or immobilized metal. Affinity tags were removed from a number of kinases during purification. […]
For each kinase, the median value of the cpm of three wells was defined as “low control” (n=3). This value reflects unspecific binding of radioactivity to the plate in the absence of a protein kinase but in the presence of the substrate. […] The residual activity (in %) for each compounds well was calculated by using the following formula: […]

SMILES: C[C@]12CC=C3C=C4CC[C@@H](O)C[C@]45CC[C@]3(O5)[C@@H]1CC[C@@H]2c1ccc2ccncc2c1 [Compound A, (3S,3aR,9R,10aR,12aS,12bR)-3-(isoquinolin-7-yl)-3a-methyl-1,2,3,3a,4,7,8,9,10,11,12,12b-dodecahydro-10a,12a-epoxybenzo[4,5]cyclohepta[1,2-e]inden-9-ol]
- inhibition at 1 µM (1 μM, 2 replicates, read-out: average percent inhibition of MUSK): > 50%
- percent inhibition of MUSK, replicates (1 μM, single replicates): 36% and 111%
- inhibition of MUSK upon retesting (up to 10 μM): not inhibited

— patent US20180298024A1, “CORTISTATIN ANALOGS AND USES THEREOF” (President and Fellows of Harvard College, priority 2015, published 2018)
